Test results from ChEMBL document CHEMBL1201862, “PubChem BioAssay data set” (2004).
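1) Cells in 96-well plates. 2) Compound, 48 h, 5 concentrations. 3) Linear interpolation between surrounding doses. 4) Unreached endpoint = highest concentration. The concentration for 50% growth inhibition is given as GI50.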 Calls of active or inactive are those of the source. Cut-off read from the data, not from the text of the source: active = GI50 up to about 1.1 µM and inactive = higher.

Columns and labels:
Assay in all cases: DTP human tumour cell line panel, 48 h
[1] = tested on: 786-0
[2] = tested on: A498
[3] = tested on: A549
[4] = tested on: ACHN
[5] = tested on: CAKI-1
[6] = tested on: CCRF-CEM
[7] = tested on: COLO 205
[8] = tested on: DLD-1
[9] = tested on: DMS-114
[10] = tested on: DMS-273
[11] = tested on: HCT-116
[12] = tested on: HCT-15
[13] = tested on: HL-60
[14] = tested on: HOP-62
[15] = tested on: HOP-92
[16] = tested on: HT-29
[17] = tested on: IGROV-1
[18] = tested on: KM-20L2
[19] = tested on: KM12
[20] = tested on: LOX IMVI
[21] = tested on: LXFL 529
[22] = tested on: M14
[23] = tested on: M19-MEL
[24] = tested on: MOLT-4
[25] = tested on: Malme-3M
[26] = tested on: NCI-H226
[27] = tested on: NCI-H23
[28] = tested on: NCI-H460
[29] = tested on: NCI-H522
[30] = tested on: OVCAR-3
[31] = tested on: OVCAR-4
[32] = tested on: OVCAR-5
[33] = tested on: OVCAR-8
[34] = tested on: RPMI-8226
[35] = tested on: RXF 393
[36] = tested on: SF-268
[37] = tested on: SF-295
[38] = tested on: SF-539
[39] = tested on: SK-MEL-28
[40] = tested on: SK-MEL-2
[41] = tested on: SK-MEL-5
[42] = tested on: SK-OV-3
[43] = tested on: SN12C
[44] = tested on: SNB-19
[45] = tested on: SNB-75
[46] = tested on: SNB-78
[47] = tested on: SW-620
[48] = tested on: TK-10
[49] = tested on: U-251
[50] = tested on: UACC-257
[51] = tested on: UO-31
[52] = tested on: XF498

`CC(C)C(Sc1nc(-c2ccccc2)c(-c2ccccc2)[nH]1)C(=O)NN` (configuration not stated) was tested, and the GI50 [1] was > 100 µM (inactive), the GI50 [2] was > 100 µM (inactive) and the GI50 [3] was > 100 µM (inactive). For the same molecule, the GI50 [4] was > 100 µM (inactive), the GI50 [5] was > 100 µM (inactive) and the GI50 [6] was 31.6 µM (inactive). The GI50 [7] was > 100 µM (inactive), the GI50 [8] was > 100 µM (inactive) and the GI50 [9] was 99.8 µM (inactive). The GI50 [10] was > 100 µM (inactive), the GI50 [11] was > 100 µM (inactive) and the GI50 [12] was over 100 µM. The GI50 [13] was 31.6 µM (inactive), the GI50 [14] was > 100 µM (inactive) and the GI50 [15] was 73.1 µM (inactive). The GI50 [16] was > 100 µM (inactive), the GI50 [17] was > 100 µM (inactive) and the GI50 [18] was > 100 µM (inactive). The GI50 [19] was > 100 µM (inactive), the GI50 [20] was > 100 µM (inactive) and the GI50 [21] was > 100 µM (inactive). The GI50 [22] was > 100 µM (inactive), the GI50 [23] was > 100 µM (inactive) and the GI50 [24] was 49.7 µM (inactive). The GI50 [25] was > 100 µM (inactive), the GI50 [26] was > 100 µM (inactive) and the GI50 [27] was > 100 µM (inactive). For the same molecule, the GI50 [28] was 97.5 µM (inactive), the GI50 [29] was 74.8 µM (inactive) and the GI50 [30] was 98.4 µM (inactive). For the same molecule, the GI50 [31] was > 100 µM (inactive), the GI50 [32] was > 100 µM (inactive) and the GI50 [33] was > 100 µM (inactive). For the same molecule, the GI50 [34] was > 100 µM (inactive), the GI50 [35] was 31.6 µM (inactive) and the GI50 [36] was > 100 µM (inactive). The GI50 [37] was 74.3 µM (inactive), the GI50 [38] was > 100 µM (inactive) and the GI50 [39] was > 100 µM (inactive). The GI50 [40] was > 100 µM (inactive), the GI50 [41] was > 100 µM (inactive) and the GI50 [42] was > 100 µM (inactive). For the same molecule, the GI50 [43] was > 100 µM (inactive), the GI50 [44] was > 100 µM (inactive) and the GI50 [45] was > 100 µM (inactive). For the same molecule, the GI50 [46] was > 100 µM (inactive), the GI50 [47] was > 100 µM (inactive) and the GI50 [48] was 92.5 µM (inactive). For the same molecule, the GI50 [49] was > 100 µM (inactive), the GI50 [50] was > 100 µM (inactive) and the GI50 [51] was > 100 µM (inactive). For the same molecule, the GI50 [52] was 72.8 µM (inactive).
